Data: ChEMBL document CHEMBL1123068, “2-Fluoroformycin and 2-aminoformycin. Synthesis and biological activity” (J Med Chem, 1985)

Assay: Ratio of kinetic parameters Vmax to the of Km.

Q: For `Nc1nc(F)nc2c1ncn2[C@@H]1O[C@H](CO)[C@@H](O)[C@@H]1O`, which Ratio is on record?
A: The Ratio was 0.0096.

Q: For `Nc1ncnc2c1ncn2[C@@H]1O[C@H](CO)[C@@H](O)[C@H]1O`, which Ratio is on record?
A: The Ratio was 15.

Q: With `Nc1nc(N)c2ncn([C@@H]3O[C@H](CO)[C@@H](O)[C@H]3O)c2n1` as the compound, how does the Ratio read?
A: Its Ratio is 3.6.
